Results on 23 compounds are retold here after US9822107B2, “Thiazole-substituted aminoheteroaryls as spleen tyrosine kinase inhibitors” (MERCK SHARP & DOHME CORP., priority 2013, dated 2017).

pIC50: −log10 of the molar value.

The first data set concerns the target T1, recombinant human GST-SYK (Homo sapiens, UniProt P43405).
T1 construct: purchased Carna Biosciences 08-176
Put plainly: Homogeneous Time-Resolved Fluorescence (HTRF) assay for the recombinant human Syk enzyme. The class given is biochemical. To be noted: recombinant human GST-SYK 5 pM, ATP 25 μM, read-out: rhSYK Activity (IC50). How it is done: Homogeneous Time-Resolved Fluorescence (HTRF) Assay for the Recombinant Human Syk Enzyme
A recombinant GST-hSYK fusion protein was used to measure potency of compounds to inhibit human Syk activity. […] Final volume of the reaction was 10 μL. Phosphorylation of the peptide was allowed to proceed for 45′ at room temperature. To quench the reaction and detect the phosphorylated product, 2 nM of a Europium-anti-phosphotyrosine antibody (Perkin Elmer #AD0161) and 70 nM SA-APC (Perkin-Elmer #CR130-100) were added together in 15 mM Tris pH 7.5, 40 mM EDTA, 0.01% tween 20. Final volume of the quenching solution was 10 μL.
The resulting HTRF signal was measured after 30 minutes on an EnVision (Perkin-Elmer) reader using a time-resolved fluorescence protocol.
Turning to `CC(O)(c1ncc(-c2cc(Nc3nccc(C(F)(F)F)n3)cc3[nH]ccc23)s1)[C@H]1CC[C@H](C(=O)O)CC1` (single isomer, unassigned) [Example 1.1, (trans)-4-((R or 5)-1-hydroxy-1-(5-(6-((4-(trifluoromethyl)pyrimidin-2-yl)amino)-1H-indol-4-yl)thiazol-2-yl)ethyl)cyclohexanecarboxylic acid], the negative logarithm of the IC50 (pIC50) is 9.30.

For `CC1(C)C[C@@](O)(c2ncc(-c3cc(Nc4nccc(C(F)(F)F)n4)cc4[nH]ccc34)s2)CC[C@@H]1C(=O)O` (single isomer, unassigned) [Example 1.3, (1S,4R or 1R,4S)-4-hydroxy-2,2-dimethyl-4-[5-(6-{[4-(trifluoromethyl)pyrimidin-2-yl]amino}-1H-indol-4-yl)-1,3-thiazol-2-yl]cyclohexane-carboxylic acid], the pIC50 is 10.22.

`Cn1ccc2c(-c3cnc([C@@]4(O)CC[C@H](C(=O)O)C(C)(C)C4)s3)cc(Nc3nccc(C(F)(F)F)n3)cc21` (single isomer, unassigned) [Example 1.4, (1S,4R or 1R,4S)-4-hydroxy-2,2-dimethyl-4-[5-(1-methyl-6-{[4-(trifluoromethyl)pyrimidin-2-yl]amino}-1H-indol-4-yl)-1,3-thiazol-2-yl]cyclohexane-carboxylic acid]: the pIC50 was 9.32.

In the case of `CC1(C)C[C@@](O)(c2ncc(-c3ccnc4cc(Nc5nccc(C(F)(F)F)n5)ccc34)s2)CC[C@@H]1C(=O)O` (single isomer, unassigned) [Example 1.5, (1S,4R or 1R,4S)-4-hydroxy-2,2-dimethyl-4-(5-(7-((4-(trifluoromethyl)pyrimidin-2-yl)amino)quinolin-4-yl)thiazol-2-yl)cyclohexanecarboxylic acid], the pIC50 was 7.20.

`CC(O)(c1ncc(-c2ccnc3cc(Nc4nccc(C(F)(F)F)n4)ccc23)s1)[C@H]1CC[C@H](C(=O)O)CC1` (single isomer, unassigned) [Example 1.6]: the negative-log IC50 (pIC50) is 7.21.

Take `CC1(C)C[C@@](O)(c2ncc(-c3c[nH]c4cc(Nc5nccc(C(F)(F)F)n5)ccc34)s2)CC[C@@H]1C(=O)O` (single isomer, unassigned) [Example 1.7, (1S,4R or 1R,4S)-4-hydroxy-2,2-dimethyl-4-(5-(6-((4-(trifluoromethyl)pyrimidin-2-yl)amino)-1H-indol-3-yl)thiazol-2-yl)cyclohexanecarboxylic acid]: the negative logarithm of the IC50 (pIC50) is 7.31.

On to `CC(O)(c1ncc(-c2c[nH]c3cc(Nc4nccc(C(F)(F)F)n4)ccc23)s1)[C@H]1CC[C@H](C(=O)O)CC1` (single isomer, unassigned) [Example 1.9, (trans)-4-((R or S)-1-hydroxy-1-(5-(6-((4-(trifluoromethyl)pyrimidin-2-yl)amino)-1H-indol-3-yl)thiazol-2-yl)ethyl) cyclohexanecarboxylic acid], for which the pIC50 was 7.40.

On to `CC1(C)C[C@@](O)(c2ncc(-c3cc(Nc4nccc(C(F)(F)F)n4)cc4cn[nH]c34)s2)CC[C@@H]1C(=O)O` (single isomer, unassigned) [Example 2.8], for which the negative logarithm of the IC50 (pIC50) was 9.26.

Regarding `CC1(C)C[C@@H](C(C)(O)c2ncc(-c3cc(Nc4nccc(C(F)(F)F)n4)cc4cn[nH]c34)s2)CC[C@@H]1C(=O)O` (single isomer, unassigned) [Example 2.9, (trans)-4-((R or S)-1-hydroxy-1-[5-(5-{[4-(trifluoromethyl)pyrimidin-2-yl]amino}-1H-indazol-7-yl)-1,3-thiazol-2-yl]ethyl}-2,2-dimethylcyclohexanecarboxylic acid], the negative-log IC50 (pIC50) is 9.06.

In the case of `CC(O)(c1ncc(-c2cc(Nc3nccc(C(F)(F)F)n3)cc3cn[nH]c23)s1)[C@H]1CC[C@H](C(=O)O)CC1` (single isomer, unassigned) [Example 2.10, (trans)-4-((R or S)-1-hydroxy-1-[5-(5-{[4-(trifluoromethyl)pyrimidin-2-yl]amino}-1H-indazol-7-yl)-1,3-thiazol-2-yl]ethyl}cyclohexanecarboxylic acid], the pIC50 is 9.94.

For the compound `C[C@](O)(c1ncc(-c2cc(Nc3nccc(C(F)(F)F)n3)cc3[nH]ncc23)s1)C1CCC(C(=O)O)CC1` (single isomer, unassigned) [Example 2.11, (trans)-4-((R or S)-(1-hydroxy-1-(5-(6-((4-(trifluoromethyl)pyrimidin-2-yl)amino)-1H-indazol-4-yl)thiazol-2-yl)ethyl)cyclohexanecarboxylic acid], the negative logarithm of the IC50 (pIC50) was 9.30.

Regarding `CC(O)(c1ncc(-c2cc(Nc3nccc(C(F)(F)F)n3)cc3[nH]cnc23)s1)[C@H]1CC[C@H](C(=O)O)CC1` (single isomer, unassigned) [Example 2.12, (trans)-4-((R or S)-1-hydroxy-1-(5-(6-((4-(trifluoromethyl)pyrimidin-2-yl)amino)-1H-benzo[d]imidazol-4-yl)thiazol-2-yl)ethyl)cyclohexanecarboxylic acid], the negative-log IC50 (pIC50) is 9.30.

Take `OC1(c2ncc(-c3cc(Nc4nccc(C(F)(F)F)n4)cc4[nH]ccc34)s2)CCC1` [Example 1.2, 1-[5-(6-{[4-(trifluoromethyl)pyrimidin-2-yl]amino}-1H-indol-4-yl)-1,3-thiazol-2-yl]cyclobutanol]: the pIC50 is 7.98.

Regarding `O=C(O)[C@H]1CC[C@](O)(c2ncc(-c3c[nH]c4ccc(Nc5nccc(C(F)(F)F)n5)cc34)s2)CC1` [Example 1.8], the negative logarithm of the IC50 (pIC50) is 9.30.

As for `O=C(O)[C@H]1CC[C@](O)(c2ncc(-c3n[nH]c4ccc(Nc5nccc(C(F)(F)F)n5)cc34)s2)CC1` [Example 1.11], the pIC50 is 9.30.

On to `O=C(O)[C@H]1CC[C@](O)(c2ncc(-c3c[nH]c4ccc(Nc5nccc(C(F)F)n5)cc34)s2)CC1` [Example 1.12, cis 4-(5-(5-((4-(difluoromethyl)pyrimidin-2-yl)amino)-1H-indol-3-yl)thiazol-2-yl)-4-hydroxy-cyclohexanecarboxylic acid], for which the pIC50 is 9.30.

With `CC1(C)Oc2c(cc(Nc3nccc(-c4c[nH]nn4)n3)cc2-c2cnc([C@]3(O)CC[C@@H](C(=O)O)CC3)s2)NC1=O` [Example 2.1, (cis)-4-(5-(6-((4-(1H-1,2,3-Triazol-4-yl)pyrimidin-2-yl)amino)-2,2-dimethyl-3-oxo-3,4-dihydro-2H-benzo[b][1,4]oxazin-8-yl)thiazol-2-yl)-4-hydroxycyclohexanecarboxylic acid], the pIC50 was 9.52.

`CC1(C)Oc2c(cc(Nc3nccc(C(F)(F)F)n3)cc2-c2cnc(C3(O)CCC3)s2)NC1=O` [Example 2.2, 8-[2-(1-hydroxycyclobutyl)-1,3-thiazol-5-yl]-2,2-dimethyl-6-{[4-(trifluoromethyl)pyrimidin-2-yl]amino}-2H-1,4-benzoxazin-3(4H)-one]: the pIC50 was 7.88.

As for `O=c1[nH]c2cc(Nc3nccc(C(F)(F)F)n3)cc(-c3cnc(C4(O)CCC4)s3)c2[nH]1` [Example 2.4, 4-[2-(1-hydroxycyclobutyl)-1,3-thiazol-5-yl]-6-{[4-(trifluoromethyl)pyrimidin-2-yl]amino}-1,3-dihydro-2H-benzimidazol-2-one], the pIC50 was 8.00.

With `CC1(C)Oc2c(cc(Nc3nccc(C(F)(F)F)n3)cc2-c2cnc(C(C)(O)C(F)(F)F)s2)NC1=O` (stereo not shown) [Example 2.5, 2,2-dimethyl-8-[2-(2,2,2-trifluoro-1-hydroxy-1-methylethyl)-1,3-thiazol-5-yl]-6-{[4-(trifluoromethyl)pyrimidin-2-yl]amino}-2H-1,4-benzoxazin-3(4H)-one], the negative logarithm of the IC50 (pIC50) is 7.45.

Regarding `CCOC(=O)[C@H]1CC[C@](O)(c2ncc(-c3cc(Nc4nccc(OC(C)C)n4)cc4c3OC(C)(C)C(=O)N4)s2)CC1` [Example 2.6, ethyl cis-4-[5-(2,2-dimethyl-6-{[4-(1-methylethoxy)pyrimidin-2-yl]amino}-3-oxo-3,4-dihydro-2H-1,4-benzoxazin-8-yl)-1,3-thiazol-2-yl]-4-hydroxy-cyclohexanecarboxylate], the pIC50 is 8.15.

`CC(C)Oc1ccnc(Nc2cc3c(c(-c4cnc([C@]5(O)CC[C@@H](C(=O)O)CC5)s4)c2)OC(C)(C)C(=O)N3)n1` [Example 2.7, cis-4-[5-(2,2-dimethyl-6-{[4-(1-methylethoxy)pyrimidin-2-yl]amino}-3-oxo-3,4-dihydro-2H-1,4-benzoxazin-8-yl)-1,3-thiazol-2-yl]-4-hydroxy-cyclohexanecarboxylic acid]: the pIC50 is 9.44.

Another data set relates to PGD2.
Assay: not given
Particulars: dosed intranasally, phase I/II study, allergic rhinitis; cited from earlier work.
Turning to `Oc1cccc(Nc2ncc(F)c(Nc3cccc(O)c3)n2)c1` [Example R112], the clinical safety result is “safe across a range of indicators” and the “decrease in PGD2” value was “statistically significant decrease”.

System in another data set: not given
Assay: not given
Particulars: phase II clinical trial, allergic rhinitis; cited from earlier work.
As to `Oc1cccc(Nc2ncc(F)c(Nc3cccc(O)c3)n2)c1` [Example R112], the efficacy versus placebo result was “lack of efficacy versus placebo”.
